Measurements reported in patent US12365687B2 (Hoffmann-La Roche Inc., priority 2021, dated 2025).

Experiments:
[1] = biological target: human GABAA α5β2γ1 receptor (Homo sapiens (Human), UniProt P31644+Q8N1C3); experiment: Radioligand binding assay for γ1-containing GABAA subtypes, [3H]RO7239181 competition (α5β2γ1)
[2] = biological target: human GABAA α2β2γ1 receptor (Homo sapiens (Human), UniProt P47869+Q8N1C3); experiment: Radioligand binding assay for γ1-containing GABAA subtypes, [3H]RO7239181 competition (α2β2γ1)
[3] = biological target: human GABAA α1β3γ2 receptor (Homo sapiens (Human), UniProt P14867+P18507); experiment: Radioligand binding assay for γ2-containing GABAA subtypes, [3H]Flumazenil competition (α1β3γ2); details: for γ2/γ1 Selectivity Ratio: Ki α1β3γ2 (nM)/Ki α2β2γ1 (nM); for LogSel: Log[Ki α1β3γ2 (nM)/Ki α2β2γ1 (nM)]
[4] = biological target: α2β2γ1 GABAA receptor subtype (Homo sapiens (Human), UniProt P47869+Q8N1C3); experiment: Two-electrode voltage clamp electrophysiology in Xenopus oocytes expressing GABAA receptors (modulation of GABA EC20 current); format: cell-based; details: for Efficacy (GABA)%: % modulation of GABA EC20 = 100*(Fold increase-1), α2β2γ1 oocytes, compound at approx. 30-fold Ki; for Fold increase h-GABA-A α2β2γ1 oocyte @ 30-fold Ki: Xenopus oocytes expressing α2β2γ1, compound at approx. 30-fold its Ki α2β2γ1, GABA EC20 current
Outline: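 Two-electrode voltage clamp at −80 mV, room temperature, 3-5 days after mRNA injection into oocytes. GABA applied at EC20 for 1.5 min, twice, with compound during second application; at least 3 oocytes per concentration. Efficacy = extremum of point-by-point current ratio, expressed as 100×(fold increase−1).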

[5] = Ki h-GABAA α2β2γ1, [3H]RO7239181 competition binding, human GABAA α2β2γ1
[6] = Ki h-GABAA α2β2γ1, displacement of [3H]RO7239181, membranes of HEK293F cells expressing human receptors, means of two determinations

Structure (SMILES) | Ki [1] [nM] | Ki [2, 5] [nM] | Ki [2, 6] [nM] | Ki [3] [nM] | γ2/γ1 Selectivity Ratio [3] | LogSel [3] | Efficacy (GABA)% [4] [%] | Fold increase h-GABA-A α2β2γ1 oocyte @ 30-fold Ki [4]
C[C@@H]1N=C(c2ncccc2F)c2c(ccc(C(F)(F)F)c2Cl)-n2nc(C(=O)N3CC4(COC4)C3)nc21 [Example 112, [(4S)-7-chloro-6-(3-fluoro-2-pyridyl)-4-methyl-8-(trifluoromethyl)-4H-[1,2,4]triazolo[1,5-a][1,4]benzodiazepin-2-yl]-(2-oxa-6-azaspiro[3.3]heptan-6-yl)methanone] | 9.85 | 62 | 62 | > 30000 | 484.1 | 2.68 | 136 | 2.36
C[C@@H]1N=C(c2c(F)cccc2F)c2c(ccc(Cl)c2Cl)-n2nc(C3COC3)nc21 [Example 81, (4S)-7,8-dichloro-6-(2,6-difluorophenyl)-4-methyl-2-(oxetan-3-yl)-4H-[1,2,4]triazolo[1,5-a][1,4]benzodiazepine] | 1.63 | 6.4 | 6.45 | 563 | 87.4 | 1.94 | 53 | 1.53
C[C@@H]1N=C(c2ncccc2F)c2c(ccc(Cl)c2Cl)-n2nc(C(=O)N3CC(O)C3)nc21 [Example 44, [(4S)-7,8-dichloro-6-(3-fluoro-2-pyridyl)-4-methyl-4H-[1,2,4]triazolo[1,5-a][1,4]benzodiazepin-2-yl]-(3-hydroxyazetidin-1-yl)methanone] | 9.52 | 25.9 | 25.9 | 6620 | 255.1 | 2.41 | 133 | 2.33
C[C@@H]1N=C(c2ncccc2F)c2c(ccc(C(F)(F)F)c2Cl)-n2nc(NC(=O)NC3CC3)nc21 [Example 143, 1-[(4S)-7-chloro-6-(3-fluoro-2-pyridyl)-4-methyl-8-(trifluoromethyl)-4H-[1,2,4]triazolo[1,5-a][1,4]benzodiazepin-2-yl]-3-cyclopropyl-urea] | 7.35 | 45.4 | 45.4 | 13500 | 296.6 | 2.47 | 110 | 2.10
C[C@@H]1N=C(c2ncccc2F)c2c(ccc(C(F)(F)F)c2Cl)-n2cc(C(=O)N3CC(C(F)F)C3)nc21 [Example 156, [3-(difluoromethyl)azetidin-1-yl]-[(4S)-7-chloro-6-(3-fluoro-2-pyridyl)-4-methyl-8-(trifluoromethyl)-4H-imidazo[1,2-a][1,4]benzodiazepin-2-yl]methanone] | 15.5 | 95.1 | 93.1 | 10800 | 116.1 | 2.06 | 168 | 2.68
C[C@@H]1N=C(c2ncccc2F)c2c(ccc(C(F)(F)F)c2Cl)-n2nc(C(=O)N3CC[C@H](F)C3)nc21 [Example 123, [(4S)-7-chloro-6-(3-fluoro-2-pyridyl)-4-methyl-8-(trifluoromethyl)-4H-[1,2,4]triazolo[1,5-a][1,4]benzodiazepin-2-yl]-[(3S)-3-fluoropyrrolidin-1-yl]methanone] | 9.75 | 91.8 | 91.9 | > 30000 | 326.6 | 2.51 | 162 | 2.62
C[C@@H]1N=C(c2c(F)cccc2F)c2c(ccc(Cl)c2Cl)-n2nc(S(N)(=O)=O)nc21 [Example 69, (4S)-7,8-dichloro-6-(2,6-difluorophenyl)-4-methyl-4H-[1,2,4]triazolo[1,5-a][1,4]benzodiazepine-2-sulfonamide] | 0.77 | 19.2 | 19.2 | 1150 | 60.1 | 1.78 | 97 | 1.97
C[C@@H]1N=C(c2ncccc2F)c2c(ccc(C(F)(F)F)c2Cl)-n2nc(C(=O)N3CC(OC(F)F)C3)nc21 [Example 140, [(4S)-7-chloro-6-(3-fluor-2-pyridyl)-4-methyl-8-(trifluoromethyl)-4H-[1,2,4]triazolo[1,5-a][1,4]benzodiazepin-2-yl]-[3-(difluoromethoxy)azetidin-1-yl]methanone] | 6.63 | 28.8 | 28.8 | > 30000 | 1041.0 | 3.02 | 121 | 2.21
C[C@@H]1N=C(c2c(F)cccc2F)c2c(ccc(Cl)c2Cl)-n2nc(C(=O)N3CC4(CCOCC4)C3)nc21 [Example 99, [(4S)-7,8-dichloro-6-(2,6-difluorophenyl)-4-methyl-4H-[1,2,4]triazolo[1,5-a][1,4]benzodiazepin-2-yl]-(7-oxa-2-azaspiro[3.5]nonan-2-yl)methanone] | 3.29 | 4.5 | 4.45 | 1550 | 348.9 | 2.54 | 52 | 1.52
C[C@@H]1N=C(c2c(F)cccc2F)c2c(ccc(C(F)(F)F)c2Cl)-n2nc(NC(=O)N3CC(F)C3)nc21 [Example 128, N-[(4S)-7-chloro-6-(2,6-difluorophenyl)-4-methyl-8-(trifluoromethyl)-4H-[1,2,4]triazolo[1,5-a][1,4]benzodiazepin-2-yl]-3-fluoro-azetidine-1-carboxamide] | 4.2 | 34.8 | 34.9 | 3880 | 111.4 | 2.05 | 98 | 1.98
CNC(=O)c1cn2c(n1)CN=C(c1ncccc1F)c1c-2ccc(Cl)c1Cl [Example 12, 7,8-dichloro-6-(3-fluoro-2-pyridyl)-N-methyl-4H-imidazo[1,2-a][1,4]benzodiazepine-2-carboxamide] | 9.3 | 36.7 | 36.7 | 506 | 13.8 | 1.14 | 125 | 2.25
C[C@@H]1N=C(c2c(F)cccc2F)c2c(ccc(Cl)c2Cl)-n2nc(N3CC(C#N)C3)nc21 [Example 77, 1-[(4S)-7,8-dichloro-6-(2,6-difluorophenyl)-4-methyl-4H-[1,2,4]triazolo[1,5-a][1,4]benzodiazepin-2-yl]azetidine-3-carbonitrile] | 1 | 10.2 | 10.2 | 279 | 27.2 | 1.44 | 69 | 1.69
C[C@@H]1N=C(c2ncccc2F)c2c(ccc(C(F)(F)F)c2Cl)-n2nc(C(=O)N3CC4(CCO4)C3)nc21 [Example 119, 1-oxa-6-azaspiro[3.3]heptan-6-yl-[(4S)-7-chloro-6-(3-fluoro-2-pyridyl)-4-methyl-8-(trifluoromethyl)-4H-[1,2,4]triazolo[1,5-a][1,4]benzodiazepin-2-yl]methanone] | 10.3 | 80.9 | 80.9 | 12600 | 156.1 | 2.19 | 124 | 2.24
C[C@@H]1N=C(c2ncccc2F)c2c(ccc(C(F)(F)F)c2Cl)-n2cc(C(=O)NCC3(O)CC3)nc21 [Example 164, (4S)-7-chloro-6-(3-fluoro-2-pyridyl)-N-[(1-hydroxycyclopropyl)methyl]-4-methy-8-(trifluoromethyl)-4H-imidazo[1,2-a][1,4]benzodiazepine-2-carboxamide] | 10.6 | 35.2 | 33.7 | 8520 | 253.2 | 2.40 | 177 | 2.77
C[C@@H]1N=C(c2ncccc2F)c2c(ccc(C(F)(F)F)c2Cl)-n2nc(C(=O)N3CC4(CCCO4)C3)nc21 [Example 113, [(4S)-7-chloro-6-(3-fluoro-2-pyridyl)-4-methyl-8-(trifluoromethyl)-4H-[1,2,4]triazolo[1,5-a][1,4]benzodiazepin-2-yl]-(5-oxa-2-azaspiro[3,4]octan-2-yl)methanone] | 7.04 | 18.9 | 18.9 | 11400 | 604.3 | 2.78 | 76 | 1.76
[2H]C([2H])([2H])NC(=O)c1nc2n(n1)-c1ccc(Cl)c(Cl)c1C(c1c(F)cccc1F)=NC2 [Example 7, 7,8-dichloro-6-(2,6-difluorophenyl)-N-(trideuteriomethyl)-4H-[1,2,4]triazolo[1,5-a][1,4]benzodiazepine-2-carboxamide] | 0.75 | 6 | 6 | 455 | 75.6 | 1.88 | 68 | 1.68
